Reference: PubChem BioAssay (NCI)
Values joined by “and” are separate entries in the source; they are usually repeats but may differ in a detail not shown here. Equal values may be shown once.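 Interpolation was linear, between the two tested concentrations surrounding the appropriate level; five concentrations were tested over 48 hours in 96-well plates. The concentration for 50% growth inhibition is given as GI50. Definition used: TGI = concentration required for complete inhibition of growth.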

Tests used:
Test in all cases: inhibition of tumour cell growth, NCI panel, 48 h
MALME-3M melanoma = test system: MALME-3M melanoma
COLO 205 colon = test system: COLO 205 colon
U251 CNS = test system: U251 CNS
SNB-75 CNS = test system: SNB-75 CNS
OVCAR-8 ovarian = test system: OVCAR-8 ovarian
SK-MEL-28 melanoma = test system: SK-MEL-28 melanoma
SF-295 CNS = test system: SF-295 CNS
T-47D breast = test system: T-47D breast
HL-60(TB) leukemia = test system: HL-60(TB) leukemia
EKVX NSCLC = test system: EKVX NSCLC

| Structure (SMILES) | GI50 (MALME-3M melanoma) | TGI (MALME-3M melanoma) | GI50 (COLO 205 colon) | TGI (COLO 205 colon) | GI50 (U251 CNS) | TGI (U251 CNS) | GI50 (SNB-75 CNS) | TGI (SNB-75 CNS) | GI50 (OVCAR-8 ovarian) | TGI (OVCAR-8 ovarian) | GI50 (SK-MEL-28 melanoma) | TGI (SK-MEL-28 melanoma) | GI50 (SF-295 CNS) | TGI (SF-295 CNS) | GI50 (T-47D breast) | TGI (T-47D breast) | GI50 (HL-60(TB) leukemia) | TGI (HL-60(TB) leukemia) | GI50 (EKVX NSCLC) | TGI (EKVX NSCLC) |
| --- | --- | --- | --- | --- | --- | --- | --- | --- | --- | --- | --- | --- | --- | --- | --- | --- | --- | --- | --- | --- |
| C/C(=N\NC(=S)N1CCCC1)c1ccccn1 | < 0.0349 µM | 1.64 µM | < 0.01 µM | 10.8 µM | < 0.01 µM | 11.9 µM | 0.273 µM | 13 µM | < 0.01 µM | 12.4 µM | 0.32 µM | 13.7 µM | < 0.01 µM | 5.9 µM | < 0.01 µM | 11 µM | 0.01 µM | 0.229 µM | – | – |
| Cc1c(-c2ccc(-c3ccccc3F)cc2)nc2ccc(F)cc2c1C(=O)O | 22.7 µM and 43.9 µM | 107 µM and 293 µM | 17.4 µM and 3.81 µM | 97.7 µM and 234 µM | 0.0723 µM and 0.5 µM | 104 µM and 259 µM | 36.7 µM and 81.6 µM | 248 µM and 316 µM | 0.257 µM and 0.711 µM | 161 µM and 244 µM | 22.4 µM and 67.8 µM | 158 µM and 400 µM | 0.163 µM and 1.37 µM | 43.6 µM and 48.6 µM and 210 µM | 10.2 µM and 79.5 µM | 259 µM and 792 µM | – | 36.4 µM and 148 µM and 302 µM | 77 µM and 53.3 µM | 173 µM and 448 µM |
| COc1cc(N)c(Cl)cc1C(=O)N[C@@H]1CCN(CCCOc2ccc(F)cc2)C[C@@H]1OC | > 100 µM | > 100 µM | 54.8 µM | > 100 µM | > 100 µM | > 100 µM | > 100 µM | > 100 µM | > 100 µM | > 100 µM | > 100 µM | > 100 µM | 50.3 µM | > 100 µM | 27.3 µM | > 100 µM | 82.4 µM | > 100 µM | > 100 µM | > 100 µM |
| CCOC(=O)C(Cc1cc(OC)c(CC(C(=O)OCC)C(=O)OCC)cc1OC)C(=O)OCC | – | > 100 µM | – | > 100 µM | – | > 100 µM | – | 57.6 µM | – | > 100 µM | – | > 100 µM | – | > 100 µM | – | > 100 µM | – | > 100 µM | – | > 100 µM |
| CC(C)(C)OC(=O)NCCCCCCCCCCCCn1c2c(c3ccccc3c1=O)C(=O)c1ccccc1-2 | > 100 µM | > 100 µM | > 100 µM | > 100 µM | 36 µM | > 100 µM | 8.56 µM | 26.3 µM | 49.8 µM | > 100 µM | > 100 µM | > 100 µM | 17.5 µM | 53 µM | > 100 µM | > 100 µM | > 100 µM | > 100 µM | 85.7 µM | > 100 µM |
| CC(=O)c1nc(-c2ccc(C[C@@H](CNC(=O)CN(C)C)NC(=O)c3ccc(OC(C)C)c(Cl)c3)cc2)cn1C | 0.277 µM | 18.2 µM | 0.0292 µM | 3.84 µM | 0.0215 µM | 16.7 µM | 0.0761 µM | 13.9 µM | 0.0617 µM | 23.4 µM | 8.01 µM | 22.6 µM | 0.0338 µM | 7.75 µM | 0.0538 µM | 20.1 µM | 0.0223 µM | 0.0719 µM | 0.0455 µM | 17.8 µM |
| CN(CCOc1ccc(NS(C)(=O)=O)cc1)CCc1ccc(NS(C)(=O)=O)cc1 | > 100 µM | > 100 µM | > 100 µM | > 100 µM | > 100 µM | > 100 µM | > 100 µM | > 100 µM | > 100 µM | > 100 µM | > 100 µM | > 100 µM | > 100 µM | > 100 µM | > 100 µM | > 100 µM | > 100 µM | > 100 µM | – | – |
| COC1CCC(OC)C(c2nc3sccn3c2/C=N/N=C(N)N)C1 (centres undefined) | 1.7 µM | 23.8 µM | 25.3 µM | > 63.7 µM | 38.7 µM | 73.4 µM | 6.44 µM | > 77.2 µM | 22.1 µM | 55.6 µM | 34.9 µM | > 94.4 µM | 16.5 µM | 34.1 µM | 31.9 µM | > 65.4 µM | 1.21 µM | > 36.7 µM | 34.8 µM | > 92.7 µM |
| CCOC(=O)/C=C/c1ccc([N+](=O)[O-])o1 | 2.32 µM | 4.99 µM | 2.26 µM | 5.69 µM | 14.7 µM | 50.4 µM | 4.6 µM | 94 µM | 2.91 µM | 12.3 µM | 2.08 µM | 5.07 µM | 19.7 µM | 48.2 µM | 5.55 µM | 25.9 µM | 2.38 µM | 6.78 µM | 24.7 µM | 80.7 µM |
| OC[C@H]1N[C@H](CO)[C@@H](O)[C@H]1O | – | > 100 µM | – | > 100 µM | – | > 100 µM | – | > 100 µM | – | > 100 µM | – | > 100 µM | – | > 100 µM | – | > 100 µM | – | > 100 µM | – | > 100 µM |
| COc1ccc(C2=NNC(c3sc(Cl)nc3Cl)C2)cc1 (centres undefined) | 11.2 µM | 29 µM | 2.17 µM | 4.4 µM | 9.08 µM | 22.1 µM | 36.6 µM | > 100 µM | 3.6 µM | 21.5 µM | 10.9 µM | 24.8 µM | 25.1 µM | 77.9 µM | 2.68 µM | 8.89 µM | 10.4 µM | 64.1 µM | – | – |
| CN(Cc1cnc2nc(N)nc(N)c2n1)c1c(Cl)cc(C(=O)NC(CCC(=O)O)C(=O)O)cc1Cl (centres undefined) | 81.4 µM | > 100 µM | 0.08 µM | > 100 µM | 0.0423 µM | > 100 µM | 0.173 µM | > 100 µM | < 0.01 µM | > 100 µM | 0.313 µM | > 100 µM | 0.0156 µM | – | – | > 100 µM | < 0.01 µM | > 100 µM | – | > 100 µM |
| CC(C)C(Br)C(=O)NCC(=O)O (centres undefined) | – | > 100 µM | – | > 100 µM | – | > 100 µM | – | > 100 µM | – | > 100 µM | – | > 100 µM | – | > 100 µM | – | > 100 µM | – | > 100 µM | – | > 100 µM |
| COc1ccc2c(c1)[n+](=O)c(/C=C/C(=O)c1cc(OC)c(OC)c(OC)c1)c(C)n2[O-] | 17 µM | > 100 µM | 1.65 µM | 11.3 µM | 5.94 µM | 47 µM | 11.9 µM | 43.1 µM | 5.3 µM | > 100 µM | 12.3 µM | 50.9 µM | 44.8 µM | > 100 µM | 2.56 µM | 14.7 µM | 4.98 µM | 22.4 µM | 5.82 µM | > 100 µM |
| CCS(=O)(=O)c1cccc(-c2cc(C(=O)NC3CCN(C)CC3)c(C)c3[nH]c4ncc(C)cc4c23)c1 | 0.843 µM and 0.571 µM | 4.13 µM and 3.22 µM | 0.0923 µM and 0.0318 µM | – | 0.537 µM and 0.316 µM | 5.16 µM and 2.35 µM | 0.101 µM and 0.0804 µM | 0.459 µM and 0.264 µM | 1.58 µM and 0.855 µM | > 10 µM and 11.1 µM | 0.834 µM and 0.566 µM | 6.53 µM and 5.09 µM | 1.08 µM and 0.832 µM | > 10 µM and 5.63 µM | 0.277 µM and 0.204 µM | 4.12 µM and 3.16 µM | 0.179 µM and 0.442 µM | 4.22 µM and 3.97 µM | 1.33 µM and 0.898 µM | > 10 µM and 11 µM |
| C=C(CN1CCN(c2ccccn2)CC1)c1ccc(C(=O)Nc2ccccc2N)cc1 | – | – | 1.71 µM | 5.74 µM | 1.48 µM | > 50 µM | 1.48 µM | 4.68 µM | 1.5 µM | > 50 µM | 2.52 µM | > 50 µM | 1.39 µM | 6.52 µM | 1.23 µM | 20.9 µM | 2.2 µM | > 50 µM | 5.33 µM | > 50 µM |
| CN1C2C=CC(=O)C1C(C#N)C2 (centres undefined) | – | 51 µM and > 100 µM | – | – | 23.6 µM | > 100 µM | – | – | 20.5 µM and 45.7 µM | 44.8 µM and > 100 µM | 30 µM and > 100 µM | > 100 µM | – | > 100 µM | – | 75.9 µM and > 100 µM | – | 43.7 µM and > 100 µM | 20.6 µM and 44.2 µM | 49.6 µM and > 100 µM |
| CCCCS(=O)(=O)c1cc(Nc2ccc(O)c3c2C(=O)c2ccccc2C3=O)ccc1C | – | – | – | – | 35.8 µM | > 100 µM | 21.9 µM | > 100 µM | > 100 µM | > 100 µM | > 100 µM | > 100 µM | 5.77 µM | > 100 µM | > 100 µM | > 100 µM | > 100 µM | > 100 µM | – | – |
| OC(Cc1cccc2ccccc12)CN1CCC(c2ccccc2)CC1 (centres undefined) | – | – | – | 25.6 µM | – | 26.2 µM | – | 25.3 µM | – | 32 µM | – | 26.8 µM | – | 27.9 µM | – | 40.6 µM | – | 41.2 µM | – | 27.1 µM |
| COC(=O)N[C@@H](C)CNc1nccc(-c2cn(C(C)C)nc2-c2cc(Cl)cc(NS(C)(=O)=O)c2F)n1 | – | – | < 0.01 µM | > 100 µM | 59.5 µM | > 100 µM | 0.51 µM | > 100 µM | > 100 µM | > 100 µM | – | – | 55.7 µM | > 100 µM | > 100 µM | > 100 µM | 0.741 µM | > 57.9 µM | – | – |
| COc1c(OC2OC(C)C(O)C(O)C2O)c(OC)c2oc(-c3ccc(O)cc3)cc(=O)c2c1O (centres undefined) | 34.2 µM | > 100 µM | 29.3 µM | > 100 µM | 30.2 µM | > 100 µM | 20.6 µM | 87.1 µM | 28 µM | > 100 µM | 35.4 µM | > 100 µM | 36.4 µM | > 100 µM | 22.3 µM | > 100 µM | – | – | 38.4 µM | > 100 µM |
